Reference: patent EP0258134A1, “Therapeutical compositions containing benzhydryl thiomethane derivatives” (LABORATOIRE L. LAFON, priority 1986, dated 1988)
Marks after values point to notes of the source that are not given here.

Tests used:
souris [1] = experiment: Four-plate test; type: in vivo; conditions: half an hour after administration
Excerpt: (§1) Le test est pratiqué sur des lots de 10 souris, une demi-heure après l'administration du composé CRL 41 334.

[2] = system: souris femelles de souche OF₁; experiment: Delayed hypersensitivity reaction to sheep red blood cells; type: in vivo; conditions: for Ind. Activité / % d'augmentation du coussinet (mm) m: voie orale; for % d'augmentation du coussinet (mm) m: trois jours avant immunisation
Excerpt: Selon la méthode de Miller, Lagrange et Mackaness ("Immunopotentiation with BCG II modulation of the response to sheep red blood cells", Journal of the National Cancer Institute 1973, 51, 5, 1669 - 1676).
Le composé à tester est administré par voie orale a des souris femelles de souche OF₁ trois jours avant immunisation.
Les résultats sont exprimés en pourcentage d'augmentation du coussinet plantaire.

Solubility in water = type: physicochemical; conditions: water
Excerpt: Le composé est une poudre blanche, insoluble dans l'éther de pétrole, soluble dans l'éther, l'acé-tate d'éthyle et les alcools. Sa solubilité dans l'eau est inférieure à 0,1%.

souris [3] = experiment: Motility reduced by habituation to the enclosure; type: in vivo; conditions: dès la dose de 2 mg/kg
Method: Après 18 heures de séjour dans les actimè-tres, les souris (6 par dose, 12 témoins) reçoivent le composé CRL 41 334. Elles sont aussitôt replacées dans leurs enceintes respectives et, une demi-heure plus tard, on enregistre leur motilité pendant 30 minutes.
Après 18 heures de séjour dans les actimètres, les souris (6 par dose, 12 émoins) reçoivent le CRL 41 055. Elles sontaussitôt replacées dans leurs enceintes respectives et, une demi-heure plus tard, on enregistre leur motilité pendant 30 minutes.

souris [4] = experiment: Traction test; type: in vivo; conditions: half an hour after administration
Excerpt: as §1

rat [5] = experiment: Interaction with apomorphine, rat; type: in vivo; conditions: 16 et 64 mg/kg, apomorphine 0,5 mg/kg s.c.
Method: Le composé CRL 41 334 est administré à des lots de 6 rats une demi-heure avant l'injection sous-cutanée de 0,5 mg/kg d'apomorphine.
Le CRL 40 956 est administré à des lots de 6 rats une demi-heure avant l'injection sous cutanée de 0,5 mg/kg d'apomorphine.

rat [6] = experiment: Global behaviour and reactivities, rat, i.p.; type: in vivo
Method: (§2) Le composé CRL 41 334, en suspension dans une solution de gomme arabique, a été administré par voie intrapéritonéale sous un volume de 20 ml/kg chez la souris (mâle, NMRI, C.E.R. Janvier) et de 5 ml/kg chez le rat (mâle, CD₁; SPRAGUE DAWLEY, Charles River).
Des lots de 3 animaux sont observés avant, puis 15 mn, 30 mn, 1h, 2h, 3h et 24 heures après l'administration du composé CRL 41 334.
(§3) Le CRL 40 956, en suspension dans une solution de gomme arabique a été administré par voie intrapéritonéale sous un volume de 20 ml/kg chez la souris (mâle, NMRI, Evic Céba) et de 5 ml/kg chez le rat (mâle, CD₁, Sprague Dawley, Charles River).
Des lots de 3 animaux sont observés avant, puis 15 mn, 30 mn, 1 h, 2 h, 3 h et 24 heures après l'administration de CRL 40 956.

souris [7] = experiment: Pretoxicity, i.p., 3 mice per dose; type: in vivo
Method: as §2
I - PRETOXICITE ( 3 souris par dose)
Le CRL 41 055, en suspension dans une solution de gomme arabique, a été administré par voie intrapéritonéale sous un volume de 20 ml/kg chez la souris (mâle, NMRI, Evic Ceba).
Prétoxicite (3 souris par dose)
as §3
Prétoxicité ( 3 souris par dose)

souris [8] = experiment: Behavioural despair (forced immersion); type: in vivo; conditions: souris, 8, 32 et 128 mg/kg
Excerpt: Une demi-heure après avoir reçu le composé CRL 41 334, des lots de 6 souris (mâles, CD₁, Charles River) sont placés dans un bécher rempli d'eau sur une hauteur de 6 cm. On note la durée totale d'immobilité entre la 2ème et la 6ème minutes suivant l'immersion.
Une demi-heure après avoir reçu le CRL 40 956, des lots de 10 souris (mâles CD₁ Charles River) sont plongées dans une enceinte réduite remplie d'eau sur une hauteur de 6 cm. On note la durée totale d'immobilité entre la 2ème et la 6ème minute suivant l'immersion.

rat [9] = experiment: Interaction with amphetamine, rat; type: in vivo; conditions: rat, 16, mais surtout 64 mg/kg, amphétamine 2 mg/kg i.p.
Method: L'amphétamine (2 mg/kg) est injectée par Voie intrapéritonéale à des lots de 6 rats, une demi-heure après l'administration du composé CRL 41 334.

homme = experiment: Therapeutic use in humans; type: in vivo; conditions: homme, voie orale, 4 fois 50 mg par jour
souris [10] = experiment: Motility reduced by hypoxic aggression; type: in vivo
Method: Une demi-heure après avoir reçu le composé CRL 41 334, les souris (10 par dose, 20 témoins) sont soumises à une anoxie hypobare aigüe (dépression de 60 mmHg en 90 secondes, détente de 45 secondes), puis elles sont placées en actimètre où leur motilité est enregistrèe pendant 10 minutes.

souris [11] = experiment: Interaction with reserpine, mouse; type: in vivo
Method: Quatre heures après l'injection intrapéritonéale de 2,5 mg/kg de réserpine, des lots de 12 souris reçoivent le composé CRL 41 334. • 1 - Action sur la température • 2 - Action sur le ptosis

[12] = souris, 128 mg/kg, réserpine 2,5 mg/kg i.p.

## NC(=O)CSC(c1ccc(F)cc1)c1ccc(F)cc1 [CRL 41 334, 2-(4,4ʹ-difluorobenzhydrylthio)acétamide]
Souris [1]
  nombre de passages punis: ne modifie pas
[2]; Exp 1, 0,1 mg/kg
  Ind. Activité: 1,15
  % d'augmentation du coussinet (mm) m: 10,6%
[2]; Exp 1, 1 mg/kg
  Ind. Activité: 1,10
  % d'augmentation du coussinet (mm) m: 10,2%
[2]; Exp 1, 10 mg/kg
  Ind. Activité: 1,29
  % d'augmentation du coussinet (mm) m: 12,0%
[2]; Exp 1, 100 mg/kg
  Ind. Activité: 1,59
  % d'augmentation du coussinet (mm) m: 14,7^x %
[2]; Exp 2, 0,1 mg/kg
  Ind. Activité: 1,31
  % d'augmentation du coussinet (mm) m: 11,0%
[2]; Exp 2, 1 mg/kg
  Ind. Activité: 1,25
  % d'augmentation du coussinet (mm) m: 10,5%
[2]; Exp 2, 10 mg/kg
  Ind. Activité: 1,34
  % d'augmentation du coussinet (mm) m: 11,2%
[2]; Exp 2, 100 mg/kg
  Ind. Activité: 1,56
  % d'augmentation du coussinet (mm) m: 13,1%
[2]; overall statement in the text
  action immunostimulante: une action immunostimulante
Solubility in water
  solubility: < 1000 µg/mL
Souris [3]
  activité motrice chez la souris habituée à son enceinte: reprise nette de l'activité motrice
Souris [4]
  incapacité motrice: ne provoque pas d'incapacité motrice majeure
Rat [5]
  stéréotypies induites par l'apomorphine: potentialise
Rat [6]; rat, 64 mg/kg i.p.
  comportement et réactivités: sédation pendant 15 minutes
Rat [6]; rat, 64 mg/kg i.p., à 1 heure
  diamètre pupillaire: mydriase très modérée et brève
Rat [6]; rat, 1, 4 et 16 mg/kg i.p.
  comportement, réactivités, variation du diamètre pupillaire et de la température rectale: comparables à ceux du lot témoin
Souris [7]; 128 mg/kg i.p.
  symptômes: sédation, puis excitation 2 heures après
Souris [7]; 256 mg/kg i.p.
  symptômes: sédation suivie d'excitation 2 heures après l'injection
Souris [7]; 256 mg/kg i.p., à 15 minutes
  convulsions: 3/3
Souris [7]; 512 mg/kg i.p.
  symptômes: démarche titubante
Souris [7]; 512 mg/kg i.p., pendant les 10 premières minutes
  convulsions: 3/3
Souris [7]; 512 mg/kg i.p., 1/3 en 15 minutes et 2/3 en 24 heures
  mortalité: 3/3
Souris [8]
  durée de l'immobilité: diminue la durée de l'immobilité
Rat [9]
  stéréotypies amphétaminiques: potentialise les stéréotypies amphétaminiques
homme
  traitement des dépressions des brûlés: bons résultats
Souris [10]; 32 et 128 mg/kg
  récupération motrice après anoxie hypobare: amélioration est importante
Souris [10]; dès la dose de 2mg/kg
  récupération motrice après anoxie hypobare: amélioration de la récupération
Souris [11]; [12]
  hypothermie réserpinique: aggrave modérément l'hypothermie réserpinique
  ptosis: n'est pas modi-fié
Souris [11]; souris, 8, 32 ou 128 mg/kg, au temps 24 heures
  hypothermie et ptosis réserpiniques: semble s'opposer à l'hypothermie et au ptosis réserpiniques
